Patent US5530126A, “Process for the preparation of substituted 6-(pyrazol-3yl)-1,4-benzoxazin-3-ones” (Monsanto Company, priority 1994, dated 1996)

Assays:
Assay type in all cases: in vivo
Annual bluegrass [1] = experiment: Pre-emergence herbicide test; conditions: read-out: % plant inhibition (Anbg); for inhibition at 1120 g/ha: 1.12 kg/ha; for inhibition at 11210 g/ha: 11.21 kg/ha
In short: (§1)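 Readout: % inhibition per species, observed ~10-14 d after seeding and treatment. Treatment: known amount of active in acetone or water onto seed bed, covered with untreated soil; greenhouse, watered from below.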

Barnyardgrass [2] = experiment: Pre-emergence herbicide test; conditions: Echinochloa crus-galli, read-out: % plant inhibition (Bygr); for inhibition at 1120 g/ha: 1.12 kg/ha; for inhibition at 11210 g/ha: 11.21 kg/ha
In short: as §1

Cocklebur [3] = experiment: Pre-emergence herbicide test; conditions: Xanthium strumarium, read-out: % plant inhibition (Cobu); for inhibition at 1120 g/ha: 1.12 kg/ha; for inhibition at 11210 g/ha: 11.21 kg/ha
In short: as §1

Downy Brome [4] = experiment: Pre-emergence herbicide test; conditions: Bromus tectorum, read-out: % plant inhibition (Dobr); for inhibition at 1120 g/ha: 1.12 kg/ha; for inhibition at 11210 g/ha: 11.21 kg/ha
In short: as §1

Indian Mustard [5] = experiment: Pre-emergence herbicide test; conditions: Brassica juncea, read-out: % plant inhibition (Inmu); for inhibition at 1120 g/ha: 1.12 kg/ha; for inhibition at 11210 g/ha: 11.21 kg/ha
In short: as §1

Morningglory [6] = experiment: Pre-emergence herbicide test; conditions: Ipomoea, read-out: % plant inhibition (Mogl); for inhibition at 1120 g/ha: 1.12 kg/ha; for inhibition at 11210 g/ha: 11.21 kg/ha
In short: as §1

Seedling johnsongrass [7] = experiment: Pre-emergence herbicide test; conditions: Sorghum halepense, read-out: % plant inhibition (Sejg); for inhibition at 1120 g/ha: 1.12 kg/ha; for inhibition at 11210 g/ha: 11.21 kg/ha
In short: as §1

Velvetleaf [8] = experiment: Pre-emergence herbicide test; conditions: Abutilon theophrasti, read-out: % plant inhibition (Vele); for inhibition at 1120 g/ha: 1.12 kg/ha; for inhibition at 11210 g/ha: 11.21 kg/ha
In short: as §1

Wild buckwheat [9] = experiment: Pre-emergence herbicide test; conditions: Fallopia convolvulus, read-out: % plant inhibition (Wibw); for inhibition at 1120 g/ha: 1.12 kg/ha; for inhibition at 11210 g/ha: 11.21 kg/ha
In short: as §1

Yellow nutsedge [10] = experiment: Pre-emergence herbicide test; conditions: Cyperus, read-out: % plant inhibition (Yens); for inhibition at 1120 g/ha: 1.12 kg/ha; for inhibition at 11210 g/ha: 11.21 kg/ha
In short: as §1

Annual bluegrass [11] = experiment: Post-emergence herbicide test; conditions: read-out: % plant inhibition (Anbg); for inhibition at 1120 g/ha: 1.12 kg/ha; for inhibition at 11210 g/ha: 11.21 kg/ha
In short: (§2)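 Greenhouse-raised seedlings and perennial propagule shoots, aged 2–3 weeks, receive an atomized spray at 10 psig. The solution or suspension carries roughly 0.4% emulsifier and is applied at 200 gallons/acre; injury is rated as % inhibition after about 11 days.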

Barnyardgrass [12] = experiment: Post-emergence herbicide test; conditions: Echinochloa crus-galli, read-out: % plant inhibition (Bygr); for inhibition at 1120 g/ha: 1.12 kg/ha; for inhibition at 11210 g/ha: 11.21 kg/ha
In short: as §2

Cocklebur [13] = experiment: Post-emergence herbicide test; conditions: Xanthium strumarium, read-out: % plant inhibition (Cobu); for inhibition at 1120 g/ha: 1.12 kg/ha; for inhibition at 11210 g/ha: 11.21 kg/ha
In short: as §2

Downy Brome [14] = experiment: Post-emergence herbicide test; conditions: Bromus tectorum, read-out: % plant inhibition (Dobr); for inhibition at 1120 g/ha: 1.12 kg/ha; for inhibition at 11210 g/ha: 11.21 kg/ha
In short: as §2

Indian Mustard [15] = experiment: Post-emergence herbicide test; conditions: Brassica juncea, read-out: % plant inhibition (Inmu); for inhibition at 1120 g/ha: 1.12 kg/ha; for inhibition at 11210 g/ha: 11.21 kg/ha
In short: as §2

Morningglory [16] = experiment: Post-emergence herbicide test; conditions: Ipomoea, read-out: % plant inhibition (Mogl); for inhibition at 1120 g/ha: 1.12 kg/ha; for inhibition at 11210 g/ha: 11.21 kg/ha
In short: as §2

Seedling johnsongrass [17] = experiment: Post-emergence herbicide test; conditions: Sorghum halepense, read-out: % plant inhibition (Sejg); for inhibition at 1120 g/ha: 1.12 kg/ha; for inhibition at 11210 g/ha: 11.21 kg/ha
In short: as §2

Velvetleaf [18] = experiment: Post-emergence herbicide test; conditions: Abutilon theophrasti, read-out: % plant inhibition (Vele); for inhibition at 1120 g/ha: 1.12 kg/ha; for inhibition at 11210 g/ha: 11.21 kg/ha
In short: as §2

Wild buckwheat [19] = experiment: Post-emergence herbicide test; conditions: Fallopia convolvulus, read-out: % plant inhibition (Wibw); for inhibition at 1120 g/ha: 1.12 kg/ha; for inhibition at 11210 g/ha: 11.21 kg/ha
In short: as §2

Yellow nutsedge [20] = experiment: Post-emergence herbicide test; conditions: Cyperus, read-out: % plant inhibition (Yens); for inhibition at 1120 g/ha: 1.12 kg/ha; for inhibition at 11210 g/ha: 11.21 kg/ha
In short: as §2

Compound | inhibition at 1120 g/ha (Annual bluegrass [1]) [%] | inhibition at 1120 g/ha (Barnyardgrass [2]) [%] | inhibition at 1120 g/ha (Cocklebur [3]) [%] | inhibition at 1120 g/ha (Downy Brome [4]) [%] | inhibition at 1120 g/ha (Indian Mustard [5]) [%] | inhibition at 1120 g/ha (Morningglory [6]) [%] | inhibition at 1120 g/ha (Seedling johnsongrass [7]) [%] | inhibition at 1120 g/ha (Velvetleaf [8]) [%] | inhibition at 1120 g/ha (Wild buckwheat [9]) [%] | inhibition at 1120 g/ha (Yellow nutsedge [10]) [%] | inhibition at 1120 g/ha (Annual bluegrass [11]) [%] | inhibition at 1120 g/ha (Barnyardgrass [12]) [%] | inhibition at 1120 g/ha (Cocklebur [13]) [%] | inhibition at 1120 g/ha (Downy Brome [14]) [%] | inhibition at 1120 g/ha (Indian Mustard [15]) [%] | inhibition at 1120 g/ha (Morningglory [16]) [%] | inhibition at 1120 g/ha (Seedling johnsongrass [17]) [%] | inhibition at 1120 g/ha (Velvetleaf [18]) [%] | inhibition at 1120 g/ha (Wild buckwheat [19]) [%] | inhibition at 1120 g/ha (Yellow nutsedge [20]) [%] | further results
Cn1nc(-c2cc(S)c(Cl)cc2Cl)c(Cl)c1C(F)(F)F [Compound 93] | 0 | 0 | 20 | 0 | 10 | 30 | 0 | 20 | 20 | 0 | 10 | 70 | 70 | 50 | 60 | 60 | 40 | 90 | 90 | 0 | –
Cn1nc(-c2cc(Oc3ccc(C(F)(F)F)cc3)c(Cl)cc2F)c(Cl)c1C(F)(F)F [Compound 205] | – | – | – | – | – | – | – | – | – | – | – | – | – | – | – | – | – | – | – | – | inhibition at 11210 g/ha (Annual bluegrass [1]): 0%; inhibition at 11210 g/ha (Barnyardgrass [2]): 0%; inhibition at 11210 g/ha (Cocklebur [3]): 0%; inhibition at 11210 g/ha (Downy Brome [4]): 0%; inhibition at 11210 g/ha (Indian Mustard [5]): 30%; inhibition at 11210 g/ha (Morningglory [6]): 0%; inhibition at 11210 g/ha (Seedling johnsongrass [7]): 20%; inhibition at 11210 g/ha (Velvetleaf [8]): 10%; inhibition at 11210 g/ha (Wild buckwheat [9]): 10%; inhibition at 11210 g/ha (Yellow nutsedge [10]): 0%; inhibition at 11210 g/ha (Annual bluegrass [11]): 40%; inhibition at 11210 g/ha (Barnyardgrass [12]): 10%; inhibition at 11210 g/ha (Cocklebur [13]): 60%; inhibition at 11210 g/ha (Downy Brome [14]): 50%; inhibition at 11210 g/ha (Indian Mustard [15]): 60%; inhibition at 11210 g/ha (Morningglory [16]): 80%; inhibition at 11210 g/ha (Seedling johnsongrass [17]): 70%; inhibition at 11210 g/ha (Velvetleaf [18]): 100%; inhibition at 11210 g/ha (Wild buckwheat [19]): 90%; inhibition at 11210 g/ha (Yellow nutsedge [20]): 0%
COc1cc(-c2c(Cl)c(C(F)(F)F)nn2C)c(F)cc1Cl [Compound 74] | 10 | 20 | 0 | 20 | 90 | 50 | 60 | 90 | 100 | 0 | 0 | 10 | 20 | 10 | 40 | 20 | 10 | 40 | 90 | 10 | –
COCCOCc1cc(-c2nn(C)c(C(F)(F)F)c2Cl)c(F)cc1Cl [Compound 117] | 100 | 100 | 70 | 90 | 100 | 90 | 70 | 100 | 100 | 0 | 90 | 100 | 90 | 100 | 90 | 100 | 100 | 100 | 100 | 20 | –
Cn1nc(-c2cc([N+](=O)[O-])c(Cl)cc2F)c(Cl)c1C(F)F [Compound 198] | 0 | 0 | 0 | 0 | 20 | 0 | 0 | 80 | 70 | 0 | 50 | 50 | 70 | 70 | 100 | 90 | 70 | 100 | 100 | 0 | –
Cn1nc(-c2cc(/C=C/C(=O)O)c(Cl)cc2F)c(Cl)c1C(F)(F)F [Compound 351] | 0 | 0 | 80 | 0 | 100 | 80 | 0 | 100 | 100 | 0 | 30 | 70 | 100 | 40 | 100 | 100 | 60 | 100 | 100 | 30 | –
C#CCOCc1cc(-c2nn(C)c(C(F)(F)F)c2Cl)c(F)cc1Cl [Compound 120] | 70 | 80 | 30 | 70 | 90 | 80 | 80 | 100 | 100 | 10 | 40 | 80 | 90 | 50 | 70 | 100 | 80 | 100 | 100 | 10 | –
Cn1nc(-c2cc(C(Br)Br)c(Cl)cc2F)c(Cl)c1C(F)(F)F [Compound 132, 4-chloro-3-[4-chloro-5-(dibromomethyl)-2-fluorophenyl]-1-methyl-5-(trifluoromethyl)-1H-pyrazole] | – | – | – | – | – | – | – | – | – | – | – | – | – | – | – | – | – | – | – | – | inhibition at 11210 g/ha (Annual bluegrass [1]): 60%; inhibition at 11210 g/ha (Barnyardgrass [2]): 90%; inhibition at 11210 g/ha (Cocklebur [3]): 70%; inhibition at 11210 g/ha (Downy Brome [4]): 80%; inhibition at 11210 g/ha (Indian Mustard [5]): 90%; inhibition at 11210 g/ha (Morningglory [6]): 100%; inhibition at 11210 g/ha (Seedling johnsongrass [7]): 70%; inhibition at 11210 g/ha (Velvetleaf [8]): 100%; inhibition at 11210 g/ha (Wild buckwheat [9]): 100%; inhibition at 11210 g/ha (Yellow nutsedge [10]): 30%; inhibition at 11210 g/ha (Annual bluegrass [11]): 60%; inhibition at 11210 g/ha (Barnyardgrass [12]): 100%; inhibition at 11210 g/ha (Cocklebur [13]): 100%; inhibition at 11210 g/ha (Downy Brome [14]): 80%; inhibition at 11210 g/ha (Indian Mustard [15]): 100%; inhibition at 11210 g/ha (Morningglory [16]): 100%; inhibition at 11210 g/ha (Seedling johnsongrass [17]): 100%; inhibition at 11210 g/ha (Velvetleaf [18]): 100%; inhibition at 11210 g/ha (Wild buckwheat [19]): 100%; inhibition at 11210 g/ha (Yellow nutsedge [20]): 30%
Cn1nc(-c2ccc(Cl)cc2)c(Cl)c1C(F)(F)Cl [Compound 83] | – | – | – | – | – | – | – | – | – | – | – | – | – | – | – | – | – | – | – | – | inhibition at 11210 g/ha (Annual bluegrass [1]): 40%; inhibition at 11210 g/ha (Barnyardgrass [2]): 60%; inhibition at 11210 g/ha (Cocklebur [3]): 40%; inhibition at 11210 g/ha (Downy Brome [4]): 90%; inhibition at 11210 g/ha (Indian Mustard [5]): 60%; inhibition at 11210 g/ha (Morningglory [6]): 30%; inhibition at 11210 g/ha (Seedling johnsongrass [7]): 100%; inhibition at 11210 g/ha (Velvetleaf [8]): 90%; inhibition at 11210 g/ha (Wild buckwheat [9]): 90%; inhibition at 11210 g/ha (Yellow nutsedge [10]): 20%; inhibition at 11210 g/ha (Annual bluegrass [11]): 0%; inhibition at 11210 g/ha (Barnyardgrass [12]): 40%; inhibition at 11210 g/ha (Cocklebur [13]): 70%; inhibition at 11210 g/ha (Downy Brome [14]): 40%; inhibition at 11210 g/ha (Indian Mustard [15]): 90%; inhibition at 11210 g/ha (Morningglory [16]): 80%; inhibition at 11210 g/ha (Seedling johnsongrass [17]): 60%; inhibition at 11210 g/ha (Velvetleaf [18]): 100%; inhibition at 11210 g/ha (Wild buckwheat [19]): 100%; inhibition at 11210 g/ha (Yellow nutsedge [20]): 20%
CCC(C)COC(=O)COc1cc(-c2nn(C)c(C(F)(F)F)c2Cl)c(F)cc1Cl (centres unmarked) [Compound 287] | 0 | 0 | 90 | 0 | 60 | 70 | 0 | 100 | 80 | 30 | 0 | 70 | 100 | 10 | 20 | 100 | 80 | 100 | 90 | 10 | –
